Each structure is given as a SMILES string.

Assay [1] concerns the target T1, human orexin-2 receptor (Homo sapiens, UniProt O43614).
T1 construct: expressed in transfected cells; host or cells: Chinese hamster ovary (CHO) cells, G418 selection
T1 sequence (O43614 1-444): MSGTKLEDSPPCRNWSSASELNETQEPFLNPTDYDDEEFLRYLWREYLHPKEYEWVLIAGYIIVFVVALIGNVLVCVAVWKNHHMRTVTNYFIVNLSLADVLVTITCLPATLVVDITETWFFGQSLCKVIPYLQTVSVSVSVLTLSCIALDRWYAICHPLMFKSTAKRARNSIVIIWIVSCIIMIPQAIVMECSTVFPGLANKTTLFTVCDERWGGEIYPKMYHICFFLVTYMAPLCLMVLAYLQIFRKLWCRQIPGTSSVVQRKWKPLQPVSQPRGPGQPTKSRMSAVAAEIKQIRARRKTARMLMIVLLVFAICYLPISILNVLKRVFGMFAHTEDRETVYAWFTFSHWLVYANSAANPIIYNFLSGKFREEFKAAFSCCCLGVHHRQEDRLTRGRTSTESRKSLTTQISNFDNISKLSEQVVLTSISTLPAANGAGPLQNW
As to the kind of experiment: Intracellular calcium measurements (FLIPR), orexin receptor antagonistic activity. To be noted: FLIPR2; CHO cells expressing human orexin-2 receptor; 3 nM orexin-A; read-out: OX2 IC50. The class given is cell-based. The method, then:
(§1) The orexin receptor antagonistic activity of the compounds of formula (I) is determined in accordance with one of the following experimental methods.
(§2) Intracellular Calcium Measurements:
(§3) Chinese hamster ovary (CHO) cells expressing the human orexin-1 receptor and the human orexin-2 receptor, respectively, are grown in culture medium (Ham F-12 with L-Glutamine) containing 300 μg/ml G418, 100 U/ml penicillin, 100 μg/ml streptomycin and 10% heat inactivated fetal calf serum (FCS). The cells are seeded at 20'000 cells/well into 384-well black clear bottom sterile plates (Greiner). The seeded plates are incubated overnight at 37° C. in 5% CO2.
(§4) Human orexin-A as an agonist is prepared as 1 mM stock solution in MeOH:water (1:1), diluted in HBSS containing 0.1% bovine serum albumin (BSA), NaHCO3:0.375 g/l and 20 mM HEPES for use in the assay at a final concentration of 3 nM.
(§5) Antagonists are prepared as 10 mM stock solution in DMSO, then diluted in 384-well plates, first in DMSO, then in HBSS containing 0.1% bovine serum albumin (BSA), NaHCO3: 0.375 g/l and 20 mM HEPES.
(§6) On the day of the assay, 50 μl of staining buffer (HBSS containing 1% FCS, 20 mM HEPES, NaHCO3: 0.375 g/l, 5 mM probenecid (Sigma) and 3 μM of the fluorescent calcium indicator fluo-4 AM (1 mM stock solution in DMSO, containing 10% pluronic) is added to each well.
(§7) The 384-well cell-plates are incubated for 50 min at 37° C. in 5% CO2 followed by equilibration at RT for 30-120 min before measurement.
(§8) Within the Fluorescent Imaging Plate Reader (FLIPR2 or FLIPR Tetra, Molecular Devices), antagonists are added to the plate in a volume of 10 μl/well, incubated for 10 min and finally 10 μl/well of agonist is added. Fluorescence is measured for each well at 1 second intervals, and the height of each fluorescence peak is compared to the height of the fluorescence peak induced by 3 nM orexin-A with vehicle in place of antagonist. For each antagonist, the IC50 value (the concentration of compound needed to inhibit 50% of the agonistic response) is determined. With the FLIPR Tetra, non-optimized and optimized conditions were used. Optimized conditions were achieved by adjustment of pipetting speed and cell splitting regime. The calculated IC50 values of the compounds may fluctuate depending on the daily cellular assay performance. Fluctuations of this kind are known to those skilled in the art.
(In general: A change in cytosolic calcium serves as a functional read-out for many receptors and channels.)

The target in assay [2] is T2, human orexin-1 receptor (Homo sapiens, UniProt O43613).
T2 construct: expressed in transfected cells; host or cells: Chinese hamster ovary (CHO) cells, G418 selection
T2 sequence (O43613 1-425): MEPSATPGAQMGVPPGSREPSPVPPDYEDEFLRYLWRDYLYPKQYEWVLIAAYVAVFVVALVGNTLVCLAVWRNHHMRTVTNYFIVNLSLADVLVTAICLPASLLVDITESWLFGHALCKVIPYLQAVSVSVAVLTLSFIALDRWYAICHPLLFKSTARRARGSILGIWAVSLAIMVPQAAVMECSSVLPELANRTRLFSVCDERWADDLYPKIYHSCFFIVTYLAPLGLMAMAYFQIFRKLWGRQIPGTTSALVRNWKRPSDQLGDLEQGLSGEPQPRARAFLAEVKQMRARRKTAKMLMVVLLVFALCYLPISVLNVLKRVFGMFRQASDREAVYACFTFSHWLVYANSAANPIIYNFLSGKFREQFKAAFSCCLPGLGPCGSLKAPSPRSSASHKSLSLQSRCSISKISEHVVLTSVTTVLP
The assay is described as above. The assay is classed as cell-based. To be noted: FLIPR2; CHO cells expressing human orexin-1 receptor; 3 nM orexin-A; read-out: OX1 IC50. The method, then:
as §1, §2, §3, §4, §5, §6, §7, §8

`O=C(NC[C@@H]1[C@H]2C[C@H]2CN1C(=O)c1ccccc1-c1ccccc1)c1cccc2occc12` [Example 2, Benzofuran-4-carboxylic acid[(1S,2S,5R)-3-(biphenyl-2-carbonyl)-3-aza-bicyclo[3.1.0]hex-2-ylmethyl]-amide]: the IC50 in assay [1] turned out to be 102 nM; in assay [2], 34 nM.
On the same counts, the results for `Cc1nc(C(=O)N2C[C@@H]3C[C@@H]3[C@H]2CNC(=O)c2c(C)nc3sccn23)c(-c2ccccc2C)s1` [Example 11, 6-Methyl-imidazo[2,1-b]thiazole-5-carboxylic acid[(1S,2S,5R)-3-(2-methyl-5-o-tolyl-thiazole-4-carbonyl)-3-aza-bicyclo[3.1.0]hex-2-ylmethyl]-amide] are 66 nM and 14 nM.
Consider `Cc1nc2sccn2c1C(=O)NC[C@@H]1[C@H]2C[C@H]2CN1C(=O)c1ccccc1-c1ccccc1F` [Example 19, 6-Methyl-imidazo[2,1-b]thiazole-5-carboxylic acid[(1S,2S,5R)-3-(2′-fluoro-biphenyl-2-carbonyl)-3-aza-bicyclo[3.1.0]hex-2-ylmethyl]-amide], for which the figures for the IC50 in assay [1] and in assay [2] were 174 nM and 22 nM, respectively.
For the compound `Cc1ncc(C(=O)N2C[C@@H]3C[C@@H]3[C@H]2CNC(=O)c2c(C)nc3sccn23)c(-c2ccccc2)n1` [Example 23, 6-Methyl-imidazo[2,1-b]thiazole-5-carboxylic Acid[(1S,2S,5R)-3-(2-methyl-4-phenyl-pyrimidine-5-carbonyl)-3-aza-bicyclo[3.1.0]hex-2-ylmethyl]-amide], the half-maximal inhibitory concentration (IC50) is 338 nM in assay [1] and 35 nM in assay [2].
On to `Cc1nc2sccn2c1C(=O)NC[C@@H]1[C@H]2C[C@H]2CN1C(=O)c1ccccc1-c1csc(N)n1` [Example 24, 6-Methyl-imidazo[2,1-b]thiazole-5-carboxylic acid{(1S,2S,5R)-3-[2-(2-amino-thiazol-4-yl)-benzoyl]-3-aza-bicyclo[3.1.0]hex-2-ylmethyl}-amide], for which the IC50 worked out at 647 nM in assay [1] and 102 nM in assay [2].
On the same counts, the results for `Cc1cccc(-c2sc(Br)nc2C(=O)N2C[C@@H]3C[C@@H]3[C@H]2CNC(=O)c2c(C)nc3sccn23)c1` [Example 29, 6-Methyl-imidazo[2,1-b]thiazole-5-carboxylic acid[(1S,2S,5R)-3-(2-bromo-5-m-tolyl-thiazole-4-carbonyl)-3-aza-bicyclo[3.1.0]hex-2-ylmethyl]-amide] are 27 nM and 4 nM.
In the same order, the values of `Cc1nc2sccn2c1C(=O)NC[C@@H]1[C@H]2C[C@H]2CN1C(=O)c1ccccc1C1CCCCC1` [Example 31, 6-Methyl-imidazo[2,1-b]thiazole-5-carboxylic acid[(1S,2S,5R)-3-(2-cyclohexyl-benzoyl)-3-aza-bicyclo[3.1.0]hex-2-ylmethyl]-amide] are 167 nM and 960 nM.
Regarding `Cc1nc2sccn2c1C(=O)NC[C@@H]1[C@H]2C[C@H]2CN1C(=O)c1ccccc1-c1cccs1` [Example 32, 6-Methyl-imidazo[2,1-b]thiazole-5-carboxylic acid[(1S,2S,5R)-3-(2-thiophen-2-yl-benzoyl)-3-aza-bicyclo[3.1.0]hex-2-ylmethyl]-amide], the IC50 in assay [1] worked out at 55 nM; in assay [2] it was 15 nM.
On the same counts, the results for `Cc1nc(-c2cccc(F)c2)c(C(=O)N2C[C@@H]3C[C@@H]3[C@H]2CNC(=O)c2c(C)nc3sccn23)s1` [Example 37, 6-Methyl-imidazo[2,1-b]thiazole-5-carboxylic acid{(1S,2S,5R)-3-[4-(3-fluoro-phenyl)-2-methyl-thiazole-5-carbonyl]-3-aza-bicyclo[3.1.0]hex-2-ylmethyl}-amide] are 35 nM and 85 nM.
In the same order, the values of `Cc1cccc(-c2sc(C)nc2C(=O)N2C[C@@H]3C[C@@H]3[C@H]2CNC(=O)c2cc(F)cc3c2OCOC3)c1` [Example 42, 6-Fluoro-4H-benzo[1,3]dioxine-8-carboxylic Acid[(1S,2S,5R)-3-(2-methyl-5-m-tolyl-thiazole-4-carbonyl)-3-aza-bicyclo[3.1.0]hex-2-ylmethyl]-amide] are 12 nM and 49 nM.
On the same counts, the results for `Cc1cccc(-c2sc(C)nc2C(=O)N2C[C@@H]3C[C@@H]3[C@H]2CNC(=O)c2cccc3c2OC(C)(C)C3)c1` [Example 43, 2,2-Dimethyl-2,3-dihydro-benzofuran-7-carboxylic acid[(1S,2S,5R)-3-(2-methyl-5-m-tolyl-thiazole-4-carbonyl)-3-aza-bicyclo[3.1.0]hex-2-ylmethyl]-amide] are 19 nM and 26 nM.
On to `Cc1cccc(-c2sc(C)nc2C(=O)N2C[C@@H]3C[C@@H]3[C@H]2CNC(=O)c2cccc(C(F)(F)F)c2)c1` [Example 45, N-[(1S,2S,5R)-3-(2-Methyl-5-m-tolyl-thiazole-4-carbonyl)-3-aza-bicyclo[3.1.0]hex-2-ylmethyl]-3-trifluoromethyl-benzamide], for which the IC50 in assay [1] amounted to 61 nM; in assay [2], 110 nM.
As to `Cc1cccc(-c2sc(C)nc2C(=O)N2C[C@@H]3C[C@@H]3[C@H]2CNC(=O)c2c(C)noc2C)c1` [Example 51, 3,5-Dimethyl-isoxazole-4-carboxylic Acid[(1S,2S,5R)-3-(2-methyl-5-m-tolyl-thiazole-4-carbonyl)-3-aza-bicyclo[3.1.0]hex-2-ylmethyl]-amide], the IC50 in assay [1] is 41 nM; in assay [2], 81 nM.
In the same order, the values of `Cc1cccc(-c2sc(C)nc2C(=O)N2C[C@@H]3C[C@@H]3[C@H]2CNC(=O)c2cccc3ccccc23)c1` [Example 52, Naphthalene-1-carboxylic acid[(1S,2S,5R)-3-(2-methyl-5-m-tolyl-thiazole-4-carbonyl)-3-aza-bicyclo[3.1.0]hex-2-ylmethyl]-amide] are 228 nM and 155 nM.
In the same order, the values of `Cc1cccc(-c2sc(C)nc2C(=O)N2C[C@@H]3C[C@@H]3[C@H]2CNC(=O)c2nccc3ccccc23)c1` [Example 54, Isoquinoline-1-carboxylic Acid[(1S,2S,5R)-3-(2-methyl-5-m-tolyl-thiazole-4-carbonyl)-3-aza-bicyclo[3.1.0]hex-2-ylmethyl]-amide] are 18 nM and 26 nM.
Regarding `Cc1cccc(-c2sc(C)nc2C(=O)N2C[C@@H]3C[C@@H]3[C@H]2CNC(=O)c2n[nH]c3ccccc23)c1` [Example 58, 1H-Indazole-3-carboxylic Acid[(1S,2S,5R)-3-(2-methyl-5-m-tolyl-thiazole-4-carbonyl)-3-aza-bicyclo[3.1.0]hex-2-ylmethyl]-amide], the IC50 in assay [1] was determined as 57 nM; in assay [2], 37 nM.
On the same counts, the results for `Cc1nc(C(=O)N2C[C@@H]3C[C@@H]3[C@H]2CNC(=O)c2cccc3c2OC(C)(C)C3)c(-c2cccc(Cl)c2)s1` [Example 73, 2,2-Dimethyl-2,3-dihydro-benzofuran-7-carboxylic Acid{(1S,2S,5R)-3-[5-(3-chloro-phenyl)-2-methyl-thiazole-4-carbonyl]-3-aza-bicyclo[3.1.0]hex-2-ylmethyl}-amide] are 9 nM and 21 nM.

By IC50 is commonly meant the concentration at which inhibition is half-maximal.

Source of the values: patent US8063099B2, “Trans-3-aza-bicyclo[3.1.0]hexane derivatives” (Actelion Pharmaceuticals Ltd., priority 2007, dated 2011).
